This note sets out measurements from patent publication US11253537B2, “Polypeptide having the ability to form connections of glucosyl units in alpha-1,3 on an acceptor” (INSTITUT NATIONAL DE RECHERCHE POUR L'AGRICULTURE, …, priority 2013, dated 2022).

Format in all cases: biochemical
Assay [1] can be described thus: Reaction of the enzyme on sucrose alone (HPAEC-PAD, HPSEC). Conditions: no acceptor. The source says: The determination of the enzymatic activity of the polypeptide according to the invention can be determined by methods known to those skilled in the art, such as by use of the High Performance Liquid Chromatography Technique on reaction products with the polypeptide of the invention (MOULIS et al., J. Biol. Chem, 2006) or assay of reducing sugars by the method in dinitrosalycilic acid (SUMNER & HOWELL, 1935). More specifically, this enzymatic activity is expressed in glucansucrase units which represents the amount of enzyme which liberates one μmol of fructose per minute at 30° C. with a concentration of 100 g·L−1 sucrose and a buffer at pH 5.2 comprising 50 mM sodium acetate. This activity is preferably determined by measuring the initial rate of production of reducing sugars (fructose) by using the DNS method (SUMNER & HOWELL). To do this, a standard range of 0-2 g·L−1 of fructose is established. During kinetics, 100 μl of reaction medium are then sampled and the reaction is stopped by adding an equal volume of reagent. The samples were then heated for 5 min at 95° C., cooled in ice, diluted in half with water and the absorbance is read at 540 nm.
To characterise the functional properties of this putative transglucosylase, the enzyme was first implemented on sucrose alone, a natural substrate of enzymes of the GH70 family.
More specifically, monosaccharides, disaccharides, and small oligosaccharides (degree of polymerisation less than 20) were separated and quantified by HPAEC-PAD (High Performance Anion Exchange Chromatography with Pulsed Amperometric Detection) on column Dionex CarboPac PA-100. A sodium acetate gradient of 6 to 300 mM in 36 min, containing 150 mM of sodium hydroxide used to separate glucose, fructose, sucrose, leucrose, isomaltooligosaccharides, etc. Standard ranges of 5, 10, 15 and 20 mg·kg-1 of these sugars were performed to allow quantification. These samples were diluted for a total sugar concentration of 25 mg·kg-1. […]
(In general: Size exclusion chromatography separates by hydrodynamic size, large species first.)

Assay [2] is described as follows: Acceptor reaction with sucrose and dextran 1500 Da; α-1,3 connections by proton NMR. Particulars: for factor multiplying the activity of the enzyme on addition of dextran 1500 Da as acceptor: compared to the activity measured on sucrose alone. The method, then: While nothing presaged that this protein had still an activity, the latter (as well as its truncated form) was also incubated in the presence of sucrose and a linear dextran (glucan composed exclusively of α-1,6 bonds) of a molecular weight of 1500 Da.
(§1) We incubated for 16 h at 30° C., enzyme in sucrose (from 25 g/L to 170 g/L) in the presence of dextrans of variable molecular weight (from 1500 Da to 2.10^6 Da) and of varying concentration of 30 g/L to 100 g/L.; the sucrose/acceptor (M/M) ratio varies depending on the desired connection rate in α-1,3. The reaction medium was buffered with a solution with final sodium acetate with 50 mM, pH 5.2. A sample at initial and final times of the reaction was conducted, heated at 95° C. for 5 minutes to stop the reaction and analysed by various chromatographic (HPAEC-PAD, HPSEC) and structural (proton NMR) techniques.
More specifically, monosaccharides, disaccharides, and small oligosaccharides (degree of polymerisation less than 20) were separated and quantified by HPAEC-PAD (High Performance Anion Exchange Chromatography with Pulsed Amperometric Detection) on column Dionex CarboPac PA-100. A sodium acetate gradient of 6 to 300 mM in 36 min, containing 150 mM of sodium hydroxide used to separate glucose, fructose, sucrose, leucrose, isomaltooligosaccharides, etc. Standard ranges of 5, 10, 15 and 20 mg·kg-1 of these sugars were performed to allow quantification. These samples were diluted for a total sugar concentration of 25 mg·kg-1.
Analyses by HPSEC (High Performance Size Exclusion Chromatography-) were used to estimate the molecular weight of oligosaccharide populations or of polymers synthesised during the reactions. The separation was done using two columns SHODEX (OH-Pack SB-805 and 802.5) arranged in series. Solutions of 1, 2.5, 5 and 10 gL−1 sucrose, fructose, maltoheptaose, Dextran 11.3 kDa, 68.4 kDa, 503 kDa, 2000 kDa served as benchmarks. The samples were diluted 10 times to reach a maximum concentration of 10 g·kg-1. A solution of 0.45 M NaNO3+1% (v/v) ethylene glycol in 0.3 mL·min-1 is used as an eluent, and the samples should be diluted in the mobile phase. Column and precolumn were maintained at 70° C., detection is performed by refractometry.
(§2) For the NMR analyses, the synthesised polymers were stored at −80° C. overnight and then be freeze-dried (CHRIST ALPHA apparatus 2-4). 10 mg of the powder obtained are then dissolved in 0.5 mL of deuterated water and analysed by proton NMR. The 1H NMR spectra were acquired on a spectrometer BRUKER AVANCE (500 MHz). The data were then treated with the TOPSPIN 3.0 software.

Assay [3] is described as follows: Acceptor reaction with sucrose and higher molecular weight dextrans; proton NMR. Conditions: dextran 68.4 kDa, 503 kDa and 2×10^6 Da. The method, then: as §1, §2
Tests were performed out on particular dextran 68.4 kDa, 503 kDa and 2×10^6 Da. Based on proton NMR analyses, the high molecular weight dextrans have 50% of α-1,3 bonds (FIGS. 7 and 8). Here again we find the comb-like structure described in the '80 s in the work on the native glucan produced by the strain.

The nature of assay [4]: Screening of a library of acceptors with sucrose. Conditions: FOS and XOS as acceptors. The method, then: The enzyme α-1,3 BrS is put in the presence of its natural substrate (sucrose) and a panel of different acceptors, including dextrans connected in α-1.2 (BRISON et al., 2009), of mutans, of alternans, of reuterans, of fructans and of fructooligosaccharides, of polyphenols, of flavonoids, of amino acids. The reaction products are analysed by various chromatographic techniques (mass spectrometry, HPAEC-PAD) and by NMR.

For the molecule “GH L. fallax: orthologue protein from Leuconostoc fallax KCTC 3537, about 54% overall identity with α-1,3 BrS”, in assay [1], the “ability to produce polymers of glucosyl units from sucrose alone” value (from here on “ability to produce polymers”) is reported as “inability to polymerise the glucosyl units”. Moreover, the “connection rate in α-1,3 on a dextran 1500 Da” value in assay [2] came to 37%.

For the molecule “α-1,3 BrS: transglucosylase of 1888 amino acids from L. citreum NRRL B-742 forming α-1,3 connections of glucosyl units on acceptors”, in assay [1], the “ability to produce polymers” value is “no ability to produce polymers of glucosyl units”. The “factor multiplying the activity of the enzyme on addition of dextran 1500 Da as acceptor” value in assay [2] worked out at 26. For the same molecule, in assay [2] (sucrose/Dextran 1500 ratio 1/2), the “substitution rate (α-1,3)” value is on record as “lower than 25%”. In assay [2] (sucrose/Dextran 1500 ratio 1/3), the “rate of substitution (α-1,3)” value is recorded as “below 15%”. For the same molecule, the “degree of substitution (α-1,3)” value in assay [2] (sucrose/Dextran 1500 ratio above 1, increasing the substrate concentration) is recorded as roughly 50%; in assay [2] (sucrose/Dextran 1500 ratio greater than or equal to 1), “about 40%”. Moreover, in assay [3], the “α-1,3 bonds of the high molecular weight dextrans after reaction” value is on record as 50%. Further, the “glycosylation of oligosaccharide acceptors” value in assay [4] is listed as “allows the glycosylation of oligosaccharides”.

B1: ΔPS ΔC-1313: form of α-1,3 BrS truncated of the signal peptide and C-terminal (position 1313) (protein)
chain: DTQTPVGTTQSQQDLTGQTGQDKPTTKEVIDKKEPVPQVSAQNVGDLSADAKTPKADDKQDTQPTNAQLPDQGNKQTNSNSDKGVKESTTAPVKTTDVPSKSVAPETNTSINGGQYVEKDGQFVYIDQSGKQVSGLQNIEGHTQYFDPKTGYQTKGELKNIDDNAYYFDKNSGNGRTFTKISNGSYSEKDGMWQYVDSHDKQPVKGLYDVEGNLQYFDLSTGNQAKHQIRSVDGVTYYFDADSGNATAFKAVTNGRYAEQTTKDKDGNETSYWAYLDNQGNAIKGLNDVNGEIQYFDEHTGEQLKGHTATVDGTTYYFEGNKGNLVSVVNTAPTGQYKINGDNVYYLDNNNEAIKGLYGINGNLNYFDLATGIQLKGQAKNIDGIGYYFDQNNGNGEYRYSLTGPVVKDVYSQHNAVNNLSANNFKNLVDGFLTAETWYRPAQILSHGTDWVASTDKDFRPLITVWWPNKDIQVNYLKLMQQIGILDNSVVFDTNNDQLVLNKGAESAQIGIEKKVSETGNTDWLNELLFAPNGNQPSFIKQQYLWNVDSEYPGGWFQGGYLAYQNSDLTPYANTNPDYRTHNGLEFLLANDVDNSNPVVQAEQLNWLYYLMNFGQITANDSNANFDSMRIDAISFVDPQIAKKAYDLLDKMYGLTDNEAVANQHISIVEAPKGETPITVEKQSALVESNWRDRMKQSLSKNATLDKLDPDPAINSLEKLVADDLVNRSQSSDKDSSTIPNYSIVHAHDKDIQDTVIHIMKIVNNNPNISMSDFTMQQLQNGLKAFYEDQHQSVKKYNQYNIPSAYALLLTNKDTVPRVFYGDMYQDYGDDLDGGQYMATKSIYYNAIEQMMKARLKYVAGGQIMAVTKIKNDGINKDGTNKSGEVLTSVRFGKDIMDAQGQGTAESRNQGIGVIVSNSSGLELKNSDSITLHMGIAHKNQAYRALMLTNDKGIVNYDQDNNAPIAWTNDHGDLIFTNQMINGQSDTAVKGYLNPEVAGYLAVWVPVGANDNQDARTVTTNQKNTDGKVLHTNAALDSKLMYEGFSNFQKMPTRGNQYANVVITKNIDLFKSWGITDFELAPQYRSSDGKDITDRFLDSIVQNGYGLSDRYDLGFKTPTKYGTDQDLRKAIERLHQAGMSVMADFVANQIYGLHADKEVVSAQHVNINGDTKLVVDPRYGTQMTVVNSVGGGDYQAKYGGEYLDTISKLYPGLLLDSNGQKIDLSTKIKEWSAKYLNGSNIPQVGMGYVLKDWNNGQYFHILDKEGQYSLPTQL
modifications: Delta PS, delta C-1313
As for B1, in assay [1], the “ability to produce polymers” value is listed as “no ability to produce polymers of glucosyl units”. Moreover, the “factor multiplying the activity of the enzyme on addition of dextran 1500 Da as acceptor” value in assay [2] was 26. Also, the “rate of α-1,3 bonds according to the sucrose/dextran 1500 Da ratio, compared with the whole enzyme” value in assay [2] (truncated enzyme, same substrate (FIG. 6)) is on record as “same results”. In assay [3], the “α-1,3 bonds of the high molecular weight dextrans after reaction” value is given as 50%.
